The target of assay [1] is T1, ALR-2 (human aldose reductase, EC 1.1.1.21) (Homo sapiens, UniProt P15121).
T1 construct: gene AKR1B1; one molecule per asymmetric unit
Briefly: ITC direct titration. In kind it is binding. The source says:
ITC direct titration on ALR-2 (human aldose reductase, EC 1.1.1.21)

The target of assay [2] is T1, ALR-2 (human aldose reductase, EC 1.1.1.21). Briefly: ITC direct titration; X-ray. In kind it is binding. The source says: ITC direct titration; X-ray on ALR-2 (human aldose reductase, EC 1.1.1.21)

The values that follow come from publication PMC8699021, “Which Properties Allow Ligands to Open and Bind to the Transient Binding Pocket of Human Aldose Reductase?” (Biomolecules, 2021).

As for `O=C(O)COc1cc(F)ccc1C(=O)NCc1nc2ccccc2s1` [compound 9, inhibitor 9], the affinity in assay [1], expressed as Kd, was 420 ± 80 nM. Turning to `C[S+]([O-])c1cccc(CNC(=O)c2ccc(F)cc2OCC(=O)O)c1` (stereo not drawn) [compound 3, 2-(5-fluoro-2-((3-(methylsulfinyl)benzyl)carbamoyl)phenoxy)acetic acid], in assay [2], binding was characterised by a dissociation constant (Kd) of 5000 ± 600 nM. The same measure, in the same setting: under `O=C(O)COc1cc(F)ccc1C(=O)NCc1cccc(B(O)O)c1` [compound 4, 2-(2-((3-boronobenzyl)carbamoyl)-5-fluorophenoxy) acetic acid] stands 2300 ± 300 nM.
